Reference: patent US7118895B2, “Process for producing aglycon by using diglycosidase and flavor-improved food containing the aglycon and converting agent to be used in the process” (Amano Enzyme Inc., priority 2000, dated 2006)

System: Crude diglycosidase
Test: Examination of pH in the conversion into isoflavone aglycons by diglycosidase using soybean materials
Assay type: biochemical, Penicillium multicolor IAM7153
Set-up: Decomposition efficiency of genistin family in soymilk / Decomposition efficiency of genistin family in defatted soybean / Decomposition efficiency of daidzin family in defatted soybean: concentration or dose not given beside the values
Settings: for Decomposition efficiency of daidzin family in roasted soy flour: 55° C.
Outline: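 HPLC detection of isoflavone glycosides and aglycons after ethanol quench at 0, 1, 3 and 6 h. Reactions ran at 55° C over pH 2–11, with crude diglycosidase (enzyme solution at 1.88 AU/mL) added to suspended roasted soy flour, soymilk, defatted soybean or concentrated soy protein.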

[1] = pH4.8, heat treatment of enzyme: no, reaction time 0 h
[2] = pH4.8, heat treatment of enzyme: no, reaction time 1 h
[3] = pH4.8, heat treatment of enzyme: no, reaction time 3 h
[4] = pH4.8, heat treatment of enzyme: no, reaction time 6 h
[5] = pH4.8, heat treatment of enzyme: yes, reaction time 6 h
[6] = pH6.6, heat treatment of enzyme: no, reaction time 0 h
[7] = pH6.6, heat treatment of enzyme: no, reaction time 1 h
[8] = pH6.6, heat treatment of enzyme: no, reaction time 3 h
[9] = pH6.6, heat treatment of enzyme: no, reaction time 6 h
[10] = pH6.6, heat treatment of enzyme: yes, reaction time 6 h

O=C(O)CC(=O)OC[C@H]1O[C@@H](Oc2ccc3c(=O)c(-c4ccc(O)cc4)coc3c2)[C@H](O)[C@@H](O)[C@@H]1O [malonyldaidzin, 6″-O-malonyldaidzin]
Decomposition efficiency of daidzin family in concentrated soybean protein (pH1.6, heat treatment of enzyme: no, reaction time 0 h): not detected
Decomposition efficiency of daidzin family in concentrated soybean protein (pH1.6, heat treatment of enzyme: no, reaction time 1 h): not detected
Decomposition efficiency of daidzin family in concentrated soybean protein (pH1.6, heat treatment of enzyme: no, reaction time 3 h): not detected
Decomposition efficiency of daidzin family in concentrated soybean protein (pH1.6, heat treatment of enzyme: no, reaction time 6 h): not detected
Decomposition efficiency of daidzin family in concentrated soybean protein (pH1.6, heat treatment of enzyme: yes, reaction time 6 h): not detected
Decomposition efficiency of daidzin family in roasted soy flour (pH2, heat treatment of enzyme no, reaction time 0 h): not detected
Decomposition efficiency of daidzin family in roasted soy flour (pH2, heat treatment of enzyme no, reaction time 1 h): not detected
Decomposition efficiency of daidzin family in roasted soy flour (pH2, heat treatment of enzyme no, reaction time 3 h): not detected
Decomposition efficiency of daidzin family in roasted soy flour (pH2, heat treatment of enzyme no, reaction time 6 h): not detected
Decomposition efficiency of daidzin family in roasted soy flour (pH2, heat treatment of enzyme yes, reaction time 6 h): not detected
Decomposition efficiency of daidzin family in soymilk (pH2.3, heat treatment of enzyme: no, reaction time 0 h): 55.1%
Decomposition efficiency of daidzin family in soymilk (pH2.3, heat treatment of enzyme: no, reaction time 1 h): 54.7%
Decomposition efficiency of daidzin family in soymilk (pH2.3, heat treatment of enzyme: no, reaction time 3 h): 51.1%
Decomposition efficiency of daidzin family in soymilk (pH2.3, heat treatment of enzyme: no, reaction time 6 h): 48.5%
Decomposition efficiency of daidzin family in soymilk (pH2.3, heat treatment of enzyme: yes, reaction time 6 h): 51.0%
Decomposition efficiency of daidzin family in defatted soybean (pH2.6, heat treatment of enzyme: no, reaction time 0 h): 41.0%
Decomposition efficiency of daidzin family in defatted soybean (pH2.6, heat treatment of enzyme: no, reaction time 1 h): 41.2%
Decomposition efficiency of daidzin family in defatted soybean (pH2.6, heat treatment of enzyme: no, reaction time 3 h): 41.8%
Decomposition efficiency of daidzin family in defatted soybean (pH2.6, heat treatment of enzyme: no, reaction time 6 h): 40.2%
Decomposition efficiency of daidzin family in defatted soybean (pH2.6, heat treatment of enzyme: yes, reaction time 6 h): 38.9%
Decomposition efficiency of daidzin family in concentrated soybean protein (pH2.7, heat treatment of enzyme: no, reaction time 0 h): not detected
Decomposition efficiency of daidzin family in concentrated soybean protein (pH2.7, heat treatment of enzyme: no, reaction time 1 h): not detected
Decomposition efficiency of daidzin family in concentrated soybean protein (pH2.7, heat treatment of enzyme: no, reaction time 3 h): not detected
Decomposition efficiency of daidzin family in concentrated soybean protein (pH2.7, heat treatment of enzyme: no, reaction time 6 h): not detected
Decomposition efficiency of daidzin family in concentrated soybean protein (pH2.7, heat treatment of enzyme: yes, reaction time 6 h): not detected
Decomposition efficiency of daidzin family in roasted soy flour (pH3, heat treatment of enzyme no, reaction time 0 h): not detected
Decomposition efficiency of daidzin family in roasted soy flour (pH3, heat treatment of enzyme no, reaction time 1 h): not detected
Decomposition efficiency of daidzin family in roasted soy flour (pH3, heat treatment of enzyme no, reaction time 3 h): not detected
Decomposition efficiency of daidzin family in roasted soy flour (pH3, heat treatment of enzyme no, reaction time 6 h): not detected
Decomposition efficiency of daidzin family in roasted soy flour (pH3, heat treatment of enzyme yes, reaction time 6 h): not detected
Decomposition efficiency of daidzin family in defatted soybean (pH3.4, heat treatment of enzyme: no, reaction time 0 h): 41.0%
Decomposition efficiency of daidzin family in defatted soybean (pH3.4, heat treatment of enzyme: no, reaction time 1 h): 39.4%
Decomposition efficiency of daidzin family in defatted soybean (pH3.4, heat treatment of enzyme: no, reaction time 3 h): 34.5%
Decomposition efficiency of daidzin family in defatted soybean (pH3.4, heat treatment of enzyme: no, reaction time 6 h): 29.0%
Decomposition efficiency of daidzin family in defatted soybean (pH3.4, heat treatment of enzyme: yes, reaction time 6 h): 37.1%
Decomposition efficiency of daidzin family in soymilk (pH3.5, heat treatment of enzyme: no, reaction time 0 h): 55.1%
Decomposition efficiency of daidzin family in soymilk (pH3.5, heat treatment of enzyme: no, reaction time 1 h): 35.6%
Decomposition efficiency of daidzin family in soymilk (pH3.5, heat treatment of enzyme: no, reaction time 3 h): 15.1%
Decomposition efficiency of daidzin family in soymilk (pH3.5, heat treatment of enzyme: no, reaction time 6 h): 7.4%
Decomposition efficiency of daidzin family in soymilk (pH3.5, heat treatment of enzyme: yes, reaction time 6 h): 49.1%
Decomposition efficiency of daidzin family in concentrated soybean protein (pH3.7, heat treatment of enzyme: no, reaction time 0 h): not detected
Decomposition efficiency of daidzin family in concentrated soybean protein (pH3.7, heat treatment of enzyme: no, reaction time 1 h): not detected
Decomposition efficiency of daidzin family in concentrated soybean protein (pH3.7, heat treatment of enzyme: no, reaction time 3 h): not detected
Decomposition efficiency of daidzin family in concentrated soybean protein (pH3.7, heat treatment of enzyme: no, reaction time 6 h): not detected
Decomposition efficiency of daidzin family in concentrated soybean protein (pH3.7, heat treatment of enzyme: yes, reaction time 6 h): not detected
Decomposition efficiency of daidzin family in roasted soy flour (pH4, heat treatment of enzyme no, reaction time 0 h): not detected
Decomposition efficiency of daidzin family in roasted soy flour (pH4, heat treatment of enzyme no, reaction time 1 h): not detected
Decomposition efficiency of daidzin family in roasted soy flour (pH4, heat treatment of enzyme no, reaction time 3 h): not detected
Decomposition efficiency of daidzin family in roasted soy flour (pH4, heat treatment of enzyme no, reaction time 6 h): not detected
Decomposition efficiency of daidzin family in roasted soy flour (pH4, heat treatment of enzyme yes, reaction time 6 h): not detected
Decomposition efficiency of daidzin family in defatted soybean [1]: 40.7%
Decomposition efficiency of daidzin family in soymilk [1]: 56.2%
Decomposition efficiency of daidzin family in defatted soybean [2]: 40.5%
Decomposition efficiency of daidzin family in soymilk [2]: 47.4%
Decomposition efficiency of daidzin family in defatted soybean [3]: 36.7%
Decomposition efficiency of daidzin family in soymilk [3]: 33.9%
Decomposition efficiency of daidzin family in defatted soybean [4]: 30.5%
Decomposition efficiency of daidzin family in soymilk [4]: 20.3%
Decomposition efficiency of daidzin family in defatted soybean [5]: 38.4%
Decomposition efficiency of daidzin family in soymilk [5]: 49.7%
Decomposition efficiency of daidzin family in roasted soy flour (pH5, heat treatment of enzyme no, reaction time 0 h): not detected
Decomposition efficiency of daidzin family in roasted soy flour (pH5, heat treatment of enzyme no, reaction time 1 h): not detected
Decomposition efficiency of daidzin family in roasted soy flour (pH5, heat treatment of enzyme no, reaction time 3 h): not detected
Decomposition efficiency of daidzin family in roasted soy flour (pH5, heat treatment of enzyme no, reaction time 6 h): not detected
Decomposition efficiency of daidzin family in roasted soy flour (pH5, heat treatment of enzyme yes, reaction time 6 h): not detected
Decomposition efficiency of daidzin family in concentrated soybean protein (pH5.1, heat treatment of enzyme: no, reaction time 0 h): not detected
Decomposition efficiency of daidzin family in concentrated soybean protein (pH5.1, heat treatment of enzyme: no, reaction time 1 h): not detected
Decomposition efficiency of daidzin family in concentrated soybean protein (pH5.1, heat treatment of enzyme: no, reaction time 3 h): not detected
Decomposition efficiency of daidzin family in concentrated soybean protein (pH5.1, heat treatment of enzyme: no, reaction time 6 h): not detected
Decomposition efficiency of daidzin family in concentrated soybean protein (pH5.1, heat treatment of enzyme: yes, reaction time 6 h): not detected
Decomposition efficiency of daidzin family in defatted soybean (pH5.4, heat treatment of enzyme: no, reaction time 0 h): 40.7%
Decomposition efficiency of daidzin family in defatted soybean (pH5.4, heat treatment of enzyme: no, reaction time 1 h): 44.2%
Decomposition efficiency of daidzin family in defatted soybean (pH5.4, heat treatment of enzyme: no, reaction time 3 h): 41.5%
Decomposition efficiency of daidzin family in defatted soybean (pH5.4, heat treatment of enzyme: no, reaction time 6 h): 36.9%
Decomposition efficiency of daidzin family in defatted soybean (pH5.4, heat treatment of enzyme: yes, reaction time 6 h): 44.9%
Decomposition efficiency of daidzin family in soymilk (pH6.2, heat treatment of enzyme: no, reaction time 0 h): 56.2%
Decomposition efficiency of daidzin family in soymilk (pH6.2, heat treatment of enzyme: no, reaction time 1 h): 54.1%
Decomposition efficiency of daidzin family in soymilk (pH6.2, heat treatment of enzyme: no, reaction time 3 h): 46.4%
Decomposition efficiency of daidzin family in soymilk (pH6.2, heat treatment of enzyme: no, reaction time 6 h): 41.9%
Decomposition efficiency of daidzin family in soymilk (pH6.2, heat treatment of enzyme: yes, reaction time 6 h): 49.7%
Decomposition efficiency of daidzin family in roasted soy flour (pH6.5, heat treatment of enzyme no, reaction time 0 h): not detected
Decomposition efficiency of daidzin family in roasted soy flour (pH6.5, heat treatment of enzyme no, reaction time 1 h): not detected
Decomposition efficiency of daidzin family in roasted soy flour (pH6.5, heat treatment of enzyme no, reaction time 3 h): not detected
Decomposition efficiency of daidzin family in roasted soy flour (pH6.5, heat treatment of enzyme no, reaction time 6 h): not detected
Decomposition efficiency of daidzin family in roasted soy flour (pH6.5, heat treatment of enzyme yes, reaction time 6 h): not detected
Decomposition efficiency of daidzin family in concentrated soybean protein [6]: not detected
Decomposition efficiency of daidzin family in defatted soybean [6]: 43.1%
Decomposition efficiency of daidzin family in concentrated soybean protein [7]: not detected
Decomposition efficiency of daidzin family in defatted soybean [7]: 45.9%
Decomposition efficiency of daidzin family in concentrated soybean protein [8]: not detected
Decomposition efficiency of daidzin family in defatted soybean [8]: 44.0%
Decomposition efficiency of daidzin family in concentrated soybean protein [9]: not detected
Decomposition efficiency of daidzin family in defatted soybean [9]: 41.8%
Decomposition efficiency of daidzin family in concentrated soybean protein [10]: not detected
Decomposition efficiency of daidzin family in defatted soybean [10]: 41.2%
Decomposition efficiency of daidzin family in soymilk (pH7.2, heat treatment of enzyme: no, reaction time 0 h): 56.1%
Decomposition efficiency of daidzin family in soymilk (pH7.2, heat treatment of enzyme: no, reaction time 1 h): 56.4%
Decomposition efficiency of daidzin family in soymilk (pH7.2, heat treatment of enzyme: no, reaction time 3 h): 52.4%
Decomposition efficiency of daidzin family in soymilk (pH7.2, heat treatment of enzyme: no, reaction time 6 h): 48.2%
Decomposition efficiency of daidzin family in soymilk (pH7.2, heat treatment of enzyme: yes, reaction time 6 h): 48.3%
Decomposition efficiency of daidzin family in defatted soybean (pH7.8, heat treatment of enzyme: no, reaction time 0 h): 42.0%
Decomposition efficiency of daidzin family in defatted soybean (pH7.8, heat treatment of enzyme: no, reaction time 1 h): 43.6%
Decomposition efficiency of daidzin family in defatted soybean (pH7.8, heat treatment of enzyme: no, reaction time 3 h): 41.4%
Decomposition efficiency of daidzin family in defatted soybean (pH7.8, heat treatment of enzyme: no, reaction time 6 h): 38.7%
Decomposition efficiency of daidzin family in defatted soybean (pH7.8, heat treatment of enzyme: yes, reaction time 6 h): 36.7%
Decomposition efficiency of daidzin family in roasted soy flour (pH8.5, heat treatment of enzyme no, reaction time 0 h): not detected
Decomposition efficiency of daidzin family in roasted soy flour (pH8.5, heat treatment of enzyme no, reaction time 1 h): not detected
Decomposition efficiency of daidzin family in roasted soy flour (pH8.5, heat treatment of enzyme no, reaction time 3 h): not detected
Decomposition efficiency of daidzin family in roasted soy flour (pH8.5, heat treatment of enzyme no, reaction time 6 h): not detected
Decomposition efficiency of daidzin family in roasted soy flour (pH8.5, heat treatment of enzyme yes, reaction time 6 h): not detected
Decomposition efficiency of daidzin family in concentrated soybean protein (pH8.6, heat treatment of enzyme: no, reaction time 0 h): not detected
Decomposition efficiency of daidzin family in concentrated soybean protein (pH8.6, heat treatment of enzyme: no, reaction time 1 h): not detected
Decomposition efficiency of daidzin family in concentrated soybean protein (pH8.6, heat treatment of enzyme: no, reaction time 3 h): not detected
Decomposition efficiency of daidzin family in concentrated soybean protein (pH8.6, heat treatment of enzyme: no, reaction time 6 h): not detected
Decomposition efficiency of daidzin family in concentrated soybean protein (pH8.6, heat treatment of enzyme: yes, reaction time 6 h): not detected
Decomposition efficiency of daidzin family in soymilk (pH11.6, heat treatment of enzyme: no, reaction time 0 h): 52.5%
Decomposition efficiency of daidzin family in soymilk (pH11.6, heat treatment of enzyme: no, reaction time 1 h): 56.4%
Decomposition efficiency of daidzin family in soymilk (pH11.6, heat treatment of enzyme: no, reaction time 3 h): 50.4%
Decomposition efficiency of daidzin family in soymilk (pH11.6, heat treatment of enzyme: no, reaction time 6 h): 47.7%
Decomposition efficiency of daidzin family in soymilk (pH11.6, heat treatment of enzyme: yes, reaction time 6 h): 46.1%
